Counter-ions that a name gives are not always drawn. Like-named read-outs stand apart in the source and are kept apart here.
Tests used:
[1] = test system: postoperative pain; conditions: intravenous; for analgesic response (change in VAS pain rating): nalbuphine hydrochloride salt 2.5 mg alone
Source text: In this clinical trial 67 patients underwent standardized surgery by the same oral surgeon for removal of third molar teeth, including at least one bony impacted mandibular third molar. Prior to surgery, patients received intravenous diazepam, nitrous oxide, and a local anesthetic (mepivacaine without vasoconstrictor to obtain a nerve block of short duration). After surgery, each patient was randomly assigned to receive an injection of nalbuphine hydrochloride salt (Abbott Laboratories, Abbott Park, Ill.) 2.5 mg either alone or combined with naloxone hydrochloride salt (0.4 mg) in an open injection, double-blinded fashion, through an intravenous line.
Baseline pain intensity was defined as the last VAS pain rating before administration of the test drug. VAS pain ratings were recorded at 20 minute intervals beginning ten minutes after administration of the test drug. The duration of the experiment was two hours and fifty minutes, measured from the time of administration of the test drug. For each patient, the magnitude of the analgesic (or anti-analgesic) response was defined as the difference between the pain rating at each time point following test drug administration and the baseline VAS pain rating.

[2] = test system: postoperative pain; conditions: nalbuphine hydrochloride salt 2.5 mg alone; both sexes; intravenous
Procedure: In this clinical trial, 65 patients underwent standardized surgery by the same oral surgeon for removal of third molar teeth, including at least one bony impacted mandibular third molar. Prior to surgery, patients received intravenous diazepam, nitrous oxide, and a local anesthetic (mepivacaine without vasoconstrictor to obtain a nerve block of short duration). After surgery, each patient was randomly assigned to receive an injection of 2.5 mg of nalbuphine hydrochloride salt (Abbott Laboratories, Abbott Park, Ill.) either alone or combined with 0.2 mg naloxone hydrochloride salt in an open injection, double-blinded fashion, through an intravenous line.
Baseline pain intensity was defined as the last VAS pain rating before administration of the test drug. VAS pain ratings were recorded at 20 minute intervals beginning ten minutes after administration of the test drug. The duration of the experiment, measured from the time of administration of the test drug, was two hours and fifty minutes. For each patient, the magnitude of the analgesic (or anti-analgesic) response was defined as the difference between the pain rating at each time point following test drug administration and the baseline VAS pain rating.

Oc1ccc2c3c1O[C@H]1[C@@H](O)CC[C@@]4(O)[C@@H](C2)N(CC2CCC2)CC[C@]314 [nalbuphine hydrochloride salt, nalbuphine]
analgesic response (change in VAS pain rating) ([1]; FIG. 4a, women): induced brief analgesia | analgesic response (change in VAS pain rating) ([1]; FIG. 4b, men): failed to produce significant analgesia | anti-analgesia ([1]; women, nalbuphine hydrochloride salt 2.5 mg): apparently insufficient to produce anti-analgesia | analgesic effect [2]: initial analgesic effect of administration of nalbuphine alone observed in both sexes
